Results as given in patent publication US12649750B2, “Macrocyclic compounds, compositions, and methods of using thereof” (Sionna Therapeutics Inc., priority 2022, dated 2026).

Columns and labels:
CFTR = target: T1, CFTR (Homo sapiens, UniProt P13569, DEL508-508); experiment: TECC24 AUC fold over DMSO @10 μM, CFTR-mediated transepithelial chloride transport in CF-HBE cells; type: cell-based; settings: test agent AUC divided by DMSO vehicle AUC, primary CF-HBE cells, ΔF508 homozygous donor, 48 hours incubation
T1 construct: Primary human bronchial epithelial cells from a ΔF508 homozygous CF donor; host or cells: primary human bronchial epithelial cells (CF-HBE), ΔF508 homozygous donor
T1 sequence (P13569 with tags, fused parts or gaps DEL508-508): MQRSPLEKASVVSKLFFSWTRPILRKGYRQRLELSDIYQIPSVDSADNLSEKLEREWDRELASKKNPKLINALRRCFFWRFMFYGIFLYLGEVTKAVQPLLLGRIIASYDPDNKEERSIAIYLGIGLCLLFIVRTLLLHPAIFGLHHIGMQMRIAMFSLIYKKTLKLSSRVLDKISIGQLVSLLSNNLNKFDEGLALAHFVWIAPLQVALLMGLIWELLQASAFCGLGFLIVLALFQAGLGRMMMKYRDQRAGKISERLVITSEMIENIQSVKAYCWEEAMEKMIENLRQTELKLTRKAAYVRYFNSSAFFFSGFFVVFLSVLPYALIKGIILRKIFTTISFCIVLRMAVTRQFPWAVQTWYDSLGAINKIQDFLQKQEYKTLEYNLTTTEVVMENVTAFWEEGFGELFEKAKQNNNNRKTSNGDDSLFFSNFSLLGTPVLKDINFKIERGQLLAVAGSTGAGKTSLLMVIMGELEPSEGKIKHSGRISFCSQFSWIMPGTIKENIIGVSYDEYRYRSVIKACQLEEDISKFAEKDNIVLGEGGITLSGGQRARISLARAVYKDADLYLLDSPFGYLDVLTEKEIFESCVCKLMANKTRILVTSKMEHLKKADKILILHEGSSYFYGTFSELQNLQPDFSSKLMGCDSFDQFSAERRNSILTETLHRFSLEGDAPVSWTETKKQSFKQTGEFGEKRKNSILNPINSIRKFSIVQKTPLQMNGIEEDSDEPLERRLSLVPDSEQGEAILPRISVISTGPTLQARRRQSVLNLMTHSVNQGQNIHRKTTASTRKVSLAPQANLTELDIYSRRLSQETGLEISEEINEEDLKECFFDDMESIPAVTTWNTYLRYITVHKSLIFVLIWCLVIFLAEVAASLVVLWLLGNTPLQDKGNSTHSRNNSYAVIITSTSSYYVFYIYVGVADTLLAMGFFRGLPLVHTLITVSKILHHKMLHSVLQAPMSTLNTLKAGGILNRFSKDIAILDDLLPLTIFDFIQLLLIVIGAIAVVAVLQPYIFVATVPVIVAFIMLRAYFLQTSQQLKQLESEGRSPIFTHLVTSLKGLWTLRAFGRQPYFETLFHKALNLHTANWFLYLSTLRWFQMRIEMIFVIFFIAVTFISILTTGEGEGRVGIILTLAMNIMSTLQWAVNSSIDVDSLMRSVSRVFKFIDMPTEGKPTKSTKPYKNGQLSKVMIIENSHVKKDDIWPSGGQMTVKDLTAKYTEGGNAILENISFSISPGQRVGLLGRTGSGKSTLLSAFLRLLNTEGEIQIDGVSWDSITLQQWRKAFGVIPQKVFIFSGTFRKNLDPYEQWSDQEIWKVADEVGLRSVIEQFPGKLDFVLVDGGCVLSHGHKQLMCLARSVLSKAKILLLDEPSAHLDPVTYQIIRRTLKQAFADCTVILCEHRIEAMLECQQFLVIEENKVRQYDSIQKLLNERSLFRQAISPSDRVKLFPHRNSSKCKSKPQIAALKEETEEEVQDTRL
Summary of the method: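 Primary ΔF508-homozygous CF bronchial epithelial cells on inserts were incubated 48 h at 36.5 °C with compound in IL-13-containing medium. VT and TEER were then recorded in current-clamp mode (pH 7.4 HEPES bath) with benzamil 10 μM, forskolin 10 μM, then CFTR inhibitor-172 20 μM. The IEQ AUC between forskolin and inhibitor was divided by vehicle AUC.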

NBD1 = target: T2, NBD1 (Homo sapiens, UniProt P13569); experiment: Aggregation analysis using differential static light scattering (DSLS), thermal stability of NBD1 (ΔTagg); type: binding; settings: ΔTagg versus DMSO control, NBD1 0.2 mg/ml
T2 construct: Purified recombinant NBD1 was produced using previously described methods; made in house
T2 sequence (P13569 423-646 limits assumed): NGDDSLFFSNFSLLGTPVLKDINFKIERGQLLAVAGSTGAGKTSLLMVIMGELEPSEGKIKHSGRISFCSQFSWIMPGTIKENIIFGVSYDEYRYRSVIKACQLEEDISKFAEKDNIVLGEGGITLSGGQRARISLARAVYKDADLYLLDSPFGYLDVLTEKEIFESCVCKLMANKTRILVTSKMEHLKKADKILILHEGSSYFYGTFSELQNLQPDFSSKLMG
Summary of the method: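 Thermal aggregation of purified NBD1 was followed by static light scattering during a 1° C./min ramp to 70° C. Protein was at 0.2 mg/ml with 2 mM ATP at pH7.6. Each compound's Tagg was referenced to DMSO controls.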

| Compound | TECC (AUC, 10 μM) (CFTR) | DSLS 3D (100 μM ΔT) (NBD1) |
| --- | --- | --- |
| C[C@@H](Cc1cccc([C@@]2(C)CCCC(C)(C)CS(=O)(=O)CCc3c(c(F)c(F)c4[nH]ccc34)[S+]([O-])c3ccc(F)c(c3)-c3nc2nn3C)c1)C(=O)O (single isomer, unassigned) [Compound 225A] | C (a value between 20 and 80 is marked “C”) | B (a value above 5 °C and less than or equal to 10 °C is marked “B”) |
| C[C@@H](Cc1cccc([C@@]2(C)CCCC(C)(C)CS(=O)(=O)CCc3c(c(F)c(F)c4[nH]ccc34)[S+]([O-])c3ccc(F)c(c3)-c3nc2nn3C)c1)C(=O)O (single isomer, unassigned) [Compound 225B] | C (a value between 20 and 80 is marked “C”) | C (a value greater than 10 °C and less than or equal to 25 °C is marked “C”) |
| Cn1nc2nc1-c1cc(ccc1F)[S+]([O-])c1c(F)cc3[nH]ccc3c1CCS(=O)(=O)CC(C)(C)CCC[C@]2(C)c1cccc(C[C@@H](O)CO)c1 (single isomer, unassigned) [Compound 235A] | B (a value between 12-20 is marked “B”) | B (a value above 5 °C and less than or equal to 10 °C is marked “B”) |
| Cn1nc2nc1-c1cc(ccc1F)[S+]([O-])c1c(F)cc3[nH]ccc3c1CCS(=O)(=O)CC(C)(C)CCC[C@]2(C)c1cccc(C[C@@H](O)CO)c1 (single isomer, unassigned) [Compound 235B] | C (a value between 20 and 80 is marked “C”) | C (a value greater than 10 °C and less than or equal to 25 °C is marked “C”) |
| Cn1nc2nc1-c1cc(ccc1F)[S+]([O-])c1c(F)cc3[nH]ccc3c1CCS(=O)(=O)CC(C)(C)CCC[C@]2(C)c1cccc([C@@H](O)CO)c1 (single isomer, unassigned) [Compound 236A] | A (a TECC value less than 12 is marked “A”) | B (a value above 5 °C and less than or equal to 10 °C is marked “B”) |
| Cn1nc2nc1-c1cc(ccc1F)[S+]([O-])c1c(F)cc3[nH]ccc3c1CCS(=O)(=O)CC(C)(C)CCC[C@]2(C)c1cccc([C@@H](O)CO)c1 (single isomer, unassigned) [Compound 236B] | C (a value between 20 and 80 is marked “C”) | C (a value greater than 10 °C and less than or equal to 25 °C is marked “C”) |
| C[C@H](O)Cc1cccc([C@@]2(C)CCCC(C)(C)CS(=O)(=O)CCc3c(c(F)cc4[nH]ccc34)[S+]([O-])c3ccc(F)c(c3)-c3nc2nn3C)c1 (single isomer, unassigned) [Compound 237A] | C (a value between 20 and 80 is marked “C”) | A (an ΔTagg value less than or equal to 5 °C is marked “A”) |
| C[C@H](O)Cc1cccc([C@@]2(C)CCCC(C)(C)CS(=O)(=O)CCc3c(c(F)cc4[nH]ccc34)[S+]([O-])c3ccc(F)c(c3)-c3nc2nn3C)c1 (single isomer, unassigned) [Compound 237B] | C (a value between 20 and 80 is marked “C”) | C (a value greater than 10 °C and less than or equal to 25 °C is marked “C”) |
| C[C@@H](Cc1cccc([C@@]2(C)CCCC(C)(C)CS(=O)(=O)CCc3c(c(F)cc4[nH]ccc34)[S+]([O-])c3ccnc(c3)-c3nc2cs3)c1)C(=O)O (single isomer, unassigned) [Compound 239A] | B (a value between 12-20 is marked “B”) | A (an ΔTagg value less than or equal to 5 °C is marked “A”) |
| C[C@@H](Cc1cccc([C@@]2(C)CCCC(C)(C)CS(=O)(=O)CCc3c(c(F)cc4[nH]ccc34)[S+]([O-])c3ccnc(c3)-c3nc2cs3)c1)C(=O)O (single isomer, unassigned) [Compound 239B] | A (a TECC value less than 12 is marked “A”) | A (an ΔTagg value less than or equal to 5 °C is marked “A”) |
| C[C@@H](Cc1cccc([C@@]2(C)CCCC(C)(C)CS(=O)(=O)CCc3c(c(F)cc4[nH]ccc34)[S+]([O-])c3ccc(F)c(c3)-c3nc2cs3)c1)C(=O)O (single isomer, unassigned) [Compound 241A] | C (a value between 20 and 80 is marked “C”) | A (an ΔTagg value less than or equal to 5 °C is marked “A”) |
| C[C@@H](Cc1cccc([C@@]2(C)CCCC(C)(C)CS(=O)(=O)CCc3c(c(F)cc4[nH]ccc34)[S+]([O-])c3ccc(F)c(c3)-c3nc2cs3)c1)C(=O)O (single isomer, unassigned) [Compound 241B] | A (a TECC value less than 12 is marked “A”) | A (an ΔTagg value less than or equal to 5 °C is marked “A”) |
| Cn1nc2nc1-c1cc(ccn1)[S+]([O-])c1c(F)cc3[nH]ccc3c1CCS(=O)(=O)CC(C)(C)CCC[C@]2(C)c1cccc(CCS(C)(=O)=O)c1 (single isomer, unassigned) [Compound 243A] | C (a value between 20 and 80 is marked “C”) | B (a value above 5 °C and less than or equal to 10 °C is marked “B”) |
| Cn1nc2nc1-c1cc(ccn1)[S+]([O-])c1c(F)cc3[nH]ccc3c1CCS(=O)(=O)CC(C)(C)CCC[C@]2(C)c1cccc(CCS(C)(=O)=O)c1 (single isomer, unassigned) [Compound 243B] | C (a value between 20 and 80 is marked “C”) | C (a value greater than 10 °C and less than or equal to 25 °C is marked “C”) |
| C[C@H](Cc1ccc(C2(C)CCCC(C)(C)CS(=O)(=O)CCc3c(c(F)cc4[nH]ccc34)Oc3ccnc(c3)-c3nc2nn3C)s1)C(=O)O (single isomer, unassigned) [Compound 246A] | B (a value between 12-20 is marked “B”) | C (a value greater than 10 °C and less than or equal to 25 °C is marked “C”) |
| C[C@H](Cc1ccc(C2(C)CCCC(C)(C)CS(=O)(=O)CCc3c(c(F)cc4[nH]ccc34)Oc3ccnc(c3)-c3nc2nn3C)s1)C(=O)O (single isomer, unassigned) [Compound 246B] | B (a value between 12-20 is marked “B”) | A (an ΔTagg value less than or equal to 5 °C is marked “A”) |
| C[C@@H](Cc1cccc([C@@]2(C)CCCC(C)(C)CS(=O)(=O)CCc3c(c(F)cc4[nH]ccc34)[S+]([O-])c3ccc(F)c(c3)-c3nc2co3)c1)C(=O)O (single isomer, unassigned) [Compound 248A] | C (a value between 20 and 80 is marked “C”) | C (a value greater than 10 °C and less than or equal to 25 °C is marked “C”) |
| C[C@@H](Cc1cccc([C@@]2(C)CCCC(C)(C)CS(=O)(=O)CCc3c(c(F)cc4[nH]ccc34)[S+]([O-])c3ccc(F)c(c3)-c3nc2co3)c1)C(=O)O (single isomer, unassigned) [Compound 248B] | A (a TECC value less than 12 is marked “A”) | C (a value greater than 10 °C and less than or equal to 25 °C is marked “C”) |
| Cn1nc2nc1-c1cc(ccn1)[S+]([O-])c1c(F)cc3[nH]ccc3c1CCS(=O)(=O)CC(C)(C)CCC[C@]2(C)c1cccc(CC(=O)O)c1 (single isomer, unassigned) [Compound 249A] | C (a value between 20 and 80 is marked “C”) | C (a value greater than 10 °C and less than or equal to 25 °C is marked “C”) |
